Read-outs that look alike come from different tables or passages of the source.
Tests used:
Type in all cases: biochemical
Golgi α-Mannosidase = target: T1, Golgi α-Mannosidase (Homo sapiens, UniProt Q16706); test: inhibition of human liver Golgi α-mannosidase; conditions: 1 mM inhibitor; read-out: % Inhibition of Glycosidase Activity, α-Mannosidase Golgi
T1 construct: Human liver glycosidases were assayed; from tissue; host or cells: human liver
T1 sequence (Q16706 1-1144): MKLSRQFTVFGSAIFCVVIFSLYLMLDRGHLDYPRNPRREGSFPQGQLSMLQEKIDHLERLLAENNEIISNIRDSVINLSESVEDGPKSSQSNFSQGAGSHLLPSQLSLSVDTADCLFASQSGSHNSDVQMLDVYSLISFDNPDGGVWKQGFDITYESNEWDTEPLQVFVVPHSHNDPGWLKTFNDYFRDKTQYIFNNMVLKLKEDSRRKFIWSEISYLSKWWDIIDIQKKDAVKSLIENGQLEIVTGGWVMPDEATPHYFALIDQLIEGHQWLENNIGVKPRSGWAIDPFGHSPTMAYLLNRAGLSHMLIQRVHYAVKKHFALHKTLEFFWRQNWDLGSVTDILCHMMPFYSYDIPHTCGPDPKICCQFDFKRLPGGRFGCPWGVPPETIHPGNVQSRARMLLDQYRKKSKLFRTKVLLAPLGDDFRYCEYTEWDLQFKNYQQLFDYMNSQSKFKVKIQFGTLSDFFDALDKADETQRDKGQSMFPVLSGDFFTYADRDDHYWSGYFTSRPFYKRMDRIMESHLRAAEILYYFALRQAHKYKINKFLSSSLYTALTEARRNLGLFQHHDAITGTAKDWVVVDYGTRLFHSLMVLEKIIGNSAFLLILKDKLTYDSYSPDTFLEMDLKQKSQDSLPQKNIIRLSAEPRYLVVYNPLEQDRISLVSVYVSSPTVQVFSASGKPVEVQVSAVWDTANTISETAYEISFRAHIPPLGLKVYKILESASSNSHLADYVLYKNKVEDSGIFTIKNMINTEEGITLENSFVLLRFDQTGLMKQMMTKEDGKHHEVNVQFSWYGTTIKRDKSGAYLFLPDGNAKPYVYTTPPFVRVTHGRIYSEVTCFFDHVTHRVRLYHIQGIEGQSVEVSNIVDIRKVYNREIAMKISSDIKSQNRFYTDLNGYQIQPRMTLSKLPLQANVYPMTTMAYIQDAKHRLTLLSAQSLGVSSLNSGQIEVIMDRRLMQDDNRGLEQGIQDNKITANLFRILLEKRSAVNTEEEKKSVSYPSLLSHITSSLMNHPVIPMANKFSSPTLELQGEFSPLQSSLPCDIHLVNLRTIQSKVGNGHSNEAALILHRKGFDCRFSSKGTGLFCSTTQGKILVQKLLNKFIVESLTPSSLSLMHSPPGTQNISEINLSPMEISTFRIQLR
Method: (§1) Human liver glycosidases were assayed in the absence and presence [1 mM] of each of the potential inhibitors, using the appropriate buffered 4-methylumbelliferyl glycosides as substrates, as previously described.^17 See Table I, below.

β-Mannosidase = target: T2, β-Mannosidase (Homo sapiens, UniProt O00462); test: inhibition of human liver β-mannosidase; conditions: read-out: % Inhibition of Glycosidase Activity, β-Mannosidase
T2 construct: Human liver glycosidases were assayed; from tissue; host or cells: human liver
T2 sequence (O00462 18-879): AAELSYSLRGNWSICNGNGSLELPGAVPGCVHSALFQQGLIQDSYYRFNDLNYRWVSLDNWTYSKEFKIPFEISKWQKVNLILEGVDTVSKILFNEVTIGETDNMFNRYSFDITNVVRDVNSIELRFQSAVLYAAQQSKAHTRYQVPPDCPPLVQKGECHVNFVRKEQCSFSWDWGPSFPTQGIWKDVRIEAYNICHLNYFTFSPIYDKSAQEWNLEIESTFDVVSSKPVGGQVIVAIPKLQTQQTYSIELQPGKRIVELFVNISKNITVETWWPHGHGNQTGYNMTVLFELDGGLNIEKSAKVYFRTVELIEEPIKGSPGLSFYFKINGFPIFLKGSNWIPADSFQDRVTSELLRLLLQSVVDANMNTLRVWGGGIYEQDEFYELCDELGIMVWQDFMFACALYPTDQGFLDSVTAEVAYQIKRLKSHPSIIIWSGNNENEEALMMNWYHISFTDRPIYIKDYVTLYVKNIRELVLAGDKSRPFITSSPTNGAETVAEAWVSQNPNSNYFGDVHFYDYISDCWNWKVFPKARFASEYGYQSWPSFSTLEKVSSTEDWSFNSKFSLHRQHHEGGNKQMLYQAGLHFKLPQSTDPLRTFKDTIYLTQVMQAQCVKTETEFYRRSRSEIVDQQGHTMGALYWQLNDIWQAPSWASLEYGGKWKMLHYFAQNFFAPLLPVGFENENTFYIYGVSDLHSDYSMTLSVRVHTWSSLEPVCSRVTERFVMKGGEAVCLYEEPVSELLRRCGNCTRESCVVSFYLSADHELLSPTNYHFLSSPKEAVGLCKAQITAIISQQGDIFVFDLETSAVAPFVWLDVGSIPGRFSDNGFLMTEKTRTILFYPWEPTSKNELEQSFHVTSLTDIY
Method: as §1

α-Galactosidase = target: T3, α-Galactosidase (Homo sapiens, UniProt P06280); test: inhibition of human liver α-galactosidase; conditions: read-out: % Inhibition of Glycosidase Activity, α-Galactosidase
T3 construct: Human liver glycosidases were assayed; from tissue; host or cells: human liver
T3 sequence (P06280 32-429): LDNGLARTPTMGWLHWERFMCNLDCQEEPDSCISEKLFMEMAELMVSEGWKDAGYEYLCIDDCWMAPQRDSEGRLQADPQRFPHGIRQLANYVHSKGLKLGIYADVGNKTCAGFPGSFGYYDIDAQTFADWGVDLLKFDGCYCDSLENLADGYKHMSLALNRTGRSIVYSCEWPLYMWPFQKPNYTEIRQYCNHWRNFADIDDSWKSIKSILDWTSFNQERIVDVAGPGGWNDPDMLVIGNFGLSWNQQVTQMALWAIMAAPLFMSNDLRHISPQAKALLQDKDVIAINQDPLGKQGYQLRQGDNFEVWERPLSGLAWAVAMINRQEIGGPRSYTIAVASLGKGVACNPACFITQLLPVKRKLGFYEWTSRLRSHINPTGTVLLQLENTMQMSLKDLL
Method: as §1

α-Arabinosidase = test: inhibition of human liver α-arabinosidase; conditions: 1 mM inhibitor
Method: as §1

α-mannosidases = test: inhibition of human liver α-mannosidases (multiple forms taken together); conditions: for inhibition of α-mannosidases (in words): 1 mM
Method: as §1

Row | SMILES | inhibition at 1000 µM (Golgi α-Mannosidase) [%] | inhibition at 1000 µM (β-Mannosidase; 1 mM inhibitor) [%] | inhibition at 1000 µM (α-Galactosidase; 1 mM inhibitor) [%] | % Inhibition of Glycosidase Activity, α-Arabinosidase (α-Arabinosidase) [%] | inhibition of α-mannosidases (in words) (α-mannosidases) | inhibition at 1000 µM (β-Mannosidase) [%] | inhibition at 1000 µM (α-Galactosidase) [%] | inhibition of α-mannosidases (in words) (α-mannosidases; listed as α-(aminomethyl)-1-deoxy-mannofuranose (5)) | inhibitory activity against α-mannosidase relative to DMJ (α-mannosidases; compared with DMJ (1)) | selectivity for α-mannosidases (in words) (α-mannosidases; compared with parent compound DMJ (1))
1 | OC[C@@H](O)[C@H]1NC[C@@H](O)[C@H]1O [DIM (3)] | 96 | 0 | 0 | 66 | much more potent inhibitor than the piperidine analogues (1) and (2) of all the mannosidases investigated | – | – | – | – | –
2 | OC[C@H]1NC[C@@H](O)[C@@H](O)[C@@H]1O [DMJ (1), deoxymannojirimycin] | 45 | – | – | 5 | – | 0 | 0 | – | – | –
3 | NC[C@H]1O[C@H]([C@H](O)CO)[C@H](O)[C@@H]1O [Manhepamine (5), 1-amino-2,5-anhydro-1-deoxy-D-glycero-D-talo-heptitol] | – | 3 | 0 | 0 | did not inhibit any of the α-mannosidases | – | – | relatively inactive against α-mannosidases | – | –
4 | OC[C@@H](O)[C@H]1N[C@H](CO)[C@@H](O)[C@H]1O [αHomoDIM (4), 2,5-dideoxy-2,5-imino-D-glycero-D-talo-heptitol] | 92 | 18 | 11 | 25 | still retaining significant inhibitory properties towards α-mannosidases | – | – | – | about twice as effective as DMJ | –
5 | OC[C@H]1N[C@H](CO)[C@@H](O)C(O)[C@@H]1O (some centres unmarked) [αHomoDMJ (2)] | 56 | 0 | 0 | 0 | does not affect appreciably the inhibition of the multiple forms of α-mannosidase | – | – | – | – | much more selective inhibitor of α-mannosidases than is the parent compound DMJ (1)

From US5384417A, “Heptitols” (priority 1994, dated 1995)
